In patent publication US10882856B2 (BeiGene, Ltd., priority 2017, dated 2021):
Like-named read-outs stand apart in the source and are kept apart here.

Key:
TDO = target: T1, TDO (Homo sapiens, UniProt P48775); assay: TDO enzymatic assay; type: biochemical; conditions: read-out: Enzyme IC50 TDO
T1 construct: His tag (C); made in house; host or cells: E. coli
Procedure, shortened: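 Recombinant C-terminally His-tagged TDO purified from E. coli (100 nM) was tested with 0.5 mM L-tryptophan (Km concentration). Otherwise the IDO1 enzymatic set-up was used: ascorbic acid, methylene blue, catalase, and potassium phosphate pH 7.5 with BSA, incubated 1.5 hours. N'-formylkynurenine absorbance was read continuously at 321 nm, and activity was taken as the slope. IC50 was calculated from remaining enzyme activity across increasing compound concentrations.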

[1] = target: T2, cellular TDO2 in HEK293-TDO2 cells (Homo sapiens, UniProt P48775); assay: 293-TDO2 cell-based assay (Kyn colorimetric); conditions: 48 hours of incubation
T2 construct: expressed in transfected cells; host or cells: HEK293 (ATCC), stably transfected
Procedure, shortened: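 Kyn formed from L-Trp was read colorimetrically at 480 nm (TCA deproteinisation, then 2% 4-(dimethylamino)benzaldehyde). Compounds were added to 293-TDO2 cells 4 h post-seeding and left 48 h at 37° C. A four-parameter logistic model gave IC50 values.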

TDO2 in 293-TDO2 cells = target: T3, TDO2 in 293-TDO2 cells (Homo sapiens, UniProt P48775); assay: 293-TDO2 cell-based TDO2 Kyn (kynurenine) production assay
T3 construct: expressed in transfected cells; host or cells: HEK293 (ATCC), stably transfected
Procedure, shortened: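 HEK293 cells stably transfected to express tryptophan 2,3-dioxygenase were seeded at 10000 per well in 96-well plates in phenol red-free DMEM with 10% FBS. After 4 hours, DMSO-diluted compound dilutions were added, and cells were kept 48 hours at 37 °C, 5% CO2. Supernatant was deproteinised with trichloroacetic acid, and kynurenine was measured at 480 nm after adding 2% 4-(dimethylamino)benzaldehyde. Potency came from four-parameter logistic fits in XLfit.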

IDO1 [2] = target: T4, IDO1 (Homo sapiens, UniProt P14902); assay: IDO1 enzymatic assay; type: biochemical; parameters: His tag (N); made in house; host or cells: E. coli; conditions: read-out: Enzyme IC50 IDO1
Procedure, shortened: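 IC50 values reflect remaining IDO1 activity over increasing compound concentrations. The enzyme (50 nM, N-terminally His-tagged, purified from E. coli) was incubated for 1.5 hours at 24 °C with compound, 1.3 mM D-tryptophan, 5 mM L-ascorbic acid, methylene blue and 0.4 mg/mL catalase in 50 mM potassium phosphate pH 7.5 with 0.1% BSA. The slope of N'-formylkynurenine formation, read continuously at 321 nm for 1 hour, served as activity.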

IDO1 [3] = target: T4, IDO1; assay: IDO1 enzymatic assay; type: biochemical; parameters: His tag (N); made in house; host or cells: E. coli; conditions: recombinant IDO1, 1.3 mM D-tryptophan
Description: Recombinant IDO1 was overexpressed and purified from E. coli cells with an N-terminal His tag. IDO1 enzymatic assay was carried out using a methodology similar to described in the literature (J. Biol. Chem. (1980), 255, 1339-1345.). The reaction mixture contains 50 nM IDO1, 1.3 mM D-tryptophan, 5 mM L-ascorbic acid, […] methylene Blue, 0.4 mg/mL catalase and compound (or DMSO) in a buffer containing 50 mM potassium phosphate pH 7.5 and 0.1% BSA. After incubation at 24′C for 1.5 hours, absorbance of the reaction mixture was continuously read at 321 nm to monitor the formation of N′-formylkynurenine by a FULOstar OMEGA plate reader (BMG LABTECH) for 1 hour. The enzymatic activity was determined by measuring the slope of the linear absorbance increase as a function of time. The IC50s are calculated based on remaining enzyme activity in the presence of increasing concentrations of compounds.

IDO1 [4] = target: T4, IDO1; assay: Hela cell-based IDO1 assay; conditions: Hela cells
Procedure, shortened: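 Kynurenine was measured at 480 nm in trichloroacetic acid-deproteinised supernatant after adding 2% 4-(dimethylamino)benzaldehyde. This supernatant came from HeLa cells seeded at 8000 per well in 96-well plates in phenol red-free DMEM with 10% FBS and, from 4 hours after seeding, exposed for 48 hours at 37 °C, 5% CO2 to DMSO-diluted compound dilutions, IFN-γ (final 100 ng/mL) and 0.4 mM L-Trp. The resulting data were fitted with a four-parameter logistic model in XLfit. Potency was taken from those fits.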

[5] = target: T5, cellular IDO1 in HeLa cells (Homo sapiens, UniProt P14902); assay: HeLa cell-based IDO1 Kyn (kynurenine) production assay; conditions: IDO1 induced by IFN-γ, 48 hours, read-out: cell-based EC50 value (IDO1 expressed Hela cells)
T5 construct: endogenous in cells; host or cells: HeLa (ATCC), induced with human recombinant IFN-γ
Description: HeLa Cell-Based IDO1 Kyn (Kynurenine) Production Assay:
The inhibitory activity of IDO1 inhibitors is determined by using a colorimetric reaction to measure Kyn generated from L-Trp (L-Tryptophon) oxidation by cellular IDO1 in HeLa cells after induction of IDO1 expression by IFN-γ.
Hela cells were obtained from the American Type Culture Collection and recovered in 10% FBS-containing phenol red-free DMEM medium. Cells were plated onto a 96-well plate (100 μl/well) at 8000 cells per well and kept at 37° C. in a humidified incubator supplied with 5% CO2 4 hours later, Human recombinant IFN-γ (8901SC, CST) was added to cells (final concentration 100 ng/mL) to stimulate endogenous IDO11. Compounds at different concentrations diluted in dimethylsulfoxide (DMSO) were added simultaneously with IFN-γ and 0.4 mM L-Trp. Cells were kept at 37° C. in a humidified incubator supplied with 5% CO2. After 48 hours of incubation, 100 μl supernatant from each well was removed to a new plate. The protein in the medium was precipitated with the addition of 8 μl 6N trichloroacetic acid. The plate was incubated at 60° C. for 30 minutes and then centrifugation at 2500 rpm for 10 minutes to remove sediments. […] The absorbance at 480 nm wavelength derived from Kyn was measured using a PHERAstar FS plate reader (BMG LABTECH). […]

T4 sequence (P14902 whole entry): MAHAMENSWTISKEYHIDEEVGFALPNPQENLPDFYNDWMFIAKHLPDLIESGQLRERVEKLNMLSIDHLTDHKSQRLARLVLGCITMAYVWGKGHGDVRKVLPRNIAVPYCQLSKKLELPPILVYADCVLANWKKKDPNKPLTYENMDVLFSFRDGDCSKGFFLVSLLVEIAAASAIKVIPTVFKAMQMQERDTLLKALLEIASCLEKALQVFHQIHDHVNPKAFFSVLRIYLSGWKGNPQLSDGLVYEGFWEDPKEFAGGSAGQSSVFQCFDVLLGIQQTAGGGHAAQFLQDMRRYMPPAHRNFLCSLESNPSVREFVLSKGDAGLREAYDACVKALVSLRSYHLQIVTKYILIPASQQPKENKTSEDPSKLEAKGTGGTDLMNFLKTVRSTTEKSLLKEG
T2 sequence (P48775 whole entry): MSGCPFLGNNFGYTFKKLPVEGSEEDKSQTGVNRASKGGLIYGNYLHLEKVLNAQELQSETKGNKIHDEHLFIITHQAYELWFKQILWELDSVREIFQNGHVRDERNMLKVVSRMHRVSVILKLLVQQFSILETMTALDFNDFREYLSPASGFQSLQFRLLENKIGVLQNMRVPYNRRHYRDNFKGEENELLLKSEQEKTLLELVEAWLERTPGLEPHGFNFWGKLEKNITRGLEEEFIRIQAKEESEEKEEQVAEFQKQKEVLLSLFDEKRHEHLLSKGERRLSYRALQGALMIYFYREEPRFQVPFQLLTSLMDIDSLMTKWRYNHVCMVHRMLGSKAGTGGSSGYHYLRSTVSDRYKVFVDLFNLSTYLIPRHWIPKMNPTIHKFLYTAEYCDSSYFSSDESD
T1 sequence (P48775 whole entry): as above
T5 sequence (P14902 whole entry): as the sequence (P14902 whole entry) above
T3 sequence (P48775 whole entry): as the sequence (P48775 whole entry) above

SMILES | IC50 (TDO) | EC50 [1] | EC50 (TDO2 in 293-TDO2 cells) | IC50 (IDO1 [2]) | IC50 (IDO1 [3]) | EC50 (IDO1 [4]) | EC50 [5]
OC(c1c(C2CC2)ccc2cncn12)[C@H]1CC[C@H](c2ccc(Cl)cc2)CC1 (single isomer, unassigned) [Example D103c] | 8100 nM | > 10000 nM | > 10000 nM | 22 nM | 22 nM | 131 nM | 130 nM
OC(c1c(C2CC2)ccc2cncn12)[C@H]1CC[C@@H](c2ccc(Cl)cc2)CC1 (single isomer, unassigned) [Example D103d] | – | – | > 10000 nM | 67 nM | 67 nM | – | > 10000 nM
O[C@H](c1cc(Cl)cc2cncn12)[C@H]1CC[C@H](c2ccc(Cl)cc2)CC1 (single isomer, unassigned) [Example E101a] | 1700 nM | > 10000 nM | – | 27 nM | – | 2530 nM | –
O[C@H](c1cc(Cl)cc2cncn12)[C@H]1CC[C@H](c2cccc3ccccc32)CC1 (single isomer, unassigned) [Example E103a] | 1400 nM | > 10000 nM | – | 17 nM | – | 777 nM | –
O[C@@H](c1cc(Cl)cc2cncn12)[C@H]1CC[C@H](c2ccc3ccccc3c2)CC1 (single isomer, unassigned) [Example E104b] | 1400 nM | > 10000 nM | – | 3500 nM | – | > 10000 nM | –
COc1ccc([C@H]2CC[C@H]([C@H](O)c3c(C4CC4)ccn4cncc34)CC2)cc1 [Example C101a, (S)-(7-cyclopropylimidazo[1,5-a]pyridin-8-yl)(4-(4-methoxyphenyl)cyclohexyl)methanol] | 4200 nM | > 10000 nM | – | 17 nM | – | 110 nM | –
CC(=O)c1ccc([C@H]2CC[C@H]([C@H](O)c3c(C4CC4)ccn4cncc34)CC2)cc1 [Example C125, 1-(4-((1 S,4r)-4-((S)-(7-cyclopropylimidazo[1,5-a]pyridin-8-yl)(hydroxy)methyl)cyclohexyl)phenyl)ethan-1-one] | 6100 nM | > 10000 nM | – | 41 nM | – | 915 nM | –
Cn1cc(-c2ccc(N3CCC(C(O)c4c(C5CC5)ccn5cncc45)CC3)cc2)cn1 (stereo not shown) [Example C152, (7-cyclopropylimidazo[1,5-a]pyridin-8-yl)(1-(4-(1-methyl-1H-pyrazol-4-yl)phenyl)piperidin-4-yl)methanol] | 3300 nM | > 10000 nM | – | 29 nM | – | 520 nM | –
OCCn1cc(-c2ccc(N3CCC(C(O)c4c(C5CC5)ccn5cncc45)CC3)cc2)cn1 (stereo not shown) [Example C153, 2-(4-(4-(4-((7-cyclopropylimidazo[1,5-a]pyridin-8-yl)(hydroxy)methyl)piperidin-1-yl)phenyl)-1H-pyrazol-1-yl)ethan-1-ol] | 6700 nM | > 10000 nM | – | 47 nM | – | 1050 nM | –
O[C@@H](c1c(C2CC2)ccc2cncn12)[C@H]1CC[C@@H](c2ccc(OC3CCOCC3)cc2)CC1 [Example D114a, (R)-(6-cyclopropylimidazo[1,5-a]pyridin-5-yl)((1 s,4S)-4-(4-((tetrahydro-2H-pyran-4-yl)oxy)phenyl)cyclohexyl)methanol] | 1700 nM | > 10000 nM | – | 17 nM | – | 572 nM | –
